According to patent publication US5102885A, “Imidazoquinoxaline compounds and their use” (Novo Nordisk A/S, priority 1989, dated 1992):

System: benzodiazepine receptors
Test: In vivo displacement of 3H-flunitrazepam specific binding to brain benzodiazepine receptors in mice
Set-up: species or system mice (female, NMR)
Conditions: test substance i.p. 15 min before 3H-FNM i.v. (4 μCi), sacrificed 20 min after 3H-FNM, forebrain
Text: The pharmaceutical properties of the compounds of the invention can be illustrated by determining their capability for displacing radioactive labelled flunitrazepam from benzodiazepine receptors.
The displacement activity of the compounds of the invention may be found by determining the ED50 value. The ED50 value represents the dose (mg/kg) of a test substance which causes the specific binding of flunitrazepam to benzodiazepine receptors in a living brain to be reduced to 50% of the control value.
Such an in vivo test is carried out as follows:
Twenty minutes after a dose of ^3 H-flunitrazepam (^3 H-FNM) (200 μCi/kg, i.v.) the amount of specific ^3 H-FNM binding to brain benzodiazepine receptors has reached its maximal value.
Suspensions of test substances (2 mg/ml) are prepared in 5% Duphasol-X (TM Duphar, castor oil-ethylene oxide derivative for emulsifying and solubilizing oil and other water-insoluble substances) by sonification for 10 min using a Branson B15 microtip ultrasonifier (setting 7). Groups of three mice (female, NMR, 18-22 grams) are injected with the test substance at 100 mg/kg intraperitoneally. Fifteen minutes after test substance administration the mice are challenged with 4 μCi intravenously of ^3 H-FNM (70-90 Ci/mole) in 200 μl physiological saline. Twenty minutes after ^3 H-FNM administration mice are sacrificed by decapitation, the forebrains rapidly excised (within 30 sec) and homogenized in 12 ml of icecold 25 mM KH2 PO4, pH 7.1, using an Ultra-Turrax homogenizer fitted with an N 10 shaft. Two aliquots of 1 ml are immediately filtered through Whatman GF/C glassfibre filters and washed with 2×5 ml of the above mentioned buffer. The amounts of radioactivity on the filters are determined by conventional scintillation counting. One group of untreated mice serves as control. One to three mice are injected with 25 μg/kg clonazepam i.p. 30 minutes before ^3 H-FNM to determine the amount of non-specific ^3 H-FNM binding, which should be between 8-15% of total binding. […]
The ED50 value is determined from dose response curves.

Compound | ED50 (dose which inhibits 50% of specific 3H-flunitrazepam binding to benzodiazepine receptors in living brain)
CC(C)n1c(=O)c2c(C(=O)CC(=O)C3CC3)ncn2c2ccccc21 [Compound 2, 3-(3-cyclopropyl-1,3-dioxopropyl)-4,5-dihydro-5-isopropyl-4-oxo-imidazo[1,5-a]quinoxaline] | 1.5 mg/kg
CC(=O)CC(=O)c1ncn2c1c(=O)n(C(C)C)c1ccccc12 [Compound 4, 4,5-dihydro-5-isopropyl-4-oxo-3-(1,3-dioxobutyl)-imidazo-[1,5-a]quinoxaline] | 1.4 mg/kg
CC(C)(C)n1c(=O)c2c(C(=O)CC(=O)C3CC3)ncn2c2ccccc21 [Compound 6, 5-tert-butyl-3-(3-cyclopropyl-1,3-dioxopropyl)-4,5-dihydro-4-oxo-imidazo[1,5-a]quinoxaline] | 2.5 mg/kg
